From patent US20260166046A1, “Inhibitors of methionine aminopeptidase-2 and methods of preparation and uses thereof” (Primetime Life Sciences LLC, priority 2022, published 2026)
Where two headings read alike, the source gives them in different places.

Legend:
G. lamblia WB = experiment: Trophozoite viability IC50 determination, Giardia assay (ATPLite); format: cell-based; conditions: Giardia duodenalis, read-out: Cell viability values Mean IC50 (nM) G. lamblia WB
Description: (§1) Giardia cultures: Trophozoites of G. lamblia isolates WB and GS were grown anaerobically in borosilicate glass screw-cap culture tubes (Fisher Scientific) at pH 7.0 in modified TYI-S-33 medium. The medium was supplemented with 10% heat-inactivated bovine serum (Sigma-Aldrich) and 0.05% bovine bile (Sigma-Aldrich). To attain low-oxygen-tension conditions, the tubes were filled to 85 to 90% of their total volume capacity and incubated without shaking at 37° C. Subcultures (2×10^5 trophozoites per tube) were made three times a week. Detachment of trophozoites for inoculation was achieved by chilling the cultures on ice for 20 min. Culturing and detachment of Metronidazole-resistant G. lamblia Assemblage A 713M3 and assemblage B 1279-M1 trophozoites followed the same protocol, except that the growth medium was supplemented with metronidazole gradually increasing the concentration to 10 μM. Amebae cultures: E. histolytica strain HM1:IMSS trophozoites were grown at 37° C. in TYI-S-33 medium supplemented with penicillin (100 U/mL) and streptomycin sulfate (100 μg/mL). Trophozoites were grown anaerobically in borosilicate tubes and subcultures were made 1-2 times a week. Trophozoites were detached for inoculation by chilling the cultures on ice for 20 minutes.
(§2) Trophozoite viability IC50determination
(§3) Giardia assays: 10 μL giardia trophozoites in growth medium were plated at a density of 10,000 cells/well in sterile 96-well black clear bottom assay plates. Fumagillin and fumagillol derivatives were 1:3 serially diluted from a 1 μM DMSO stock solution and then 100 μL/well were transferred in duplicate to the assay wells. Metronidazole (control) was 1:3 serially diluted in growth medium from a 100 μM stock solution in DMSO. The assay plates were placed in a BD GasPak™ EZ Container System (BD Diagnostics) to create an anaerobic growth environment. The sealed containers were incubated at 37° C. for 72 hr. Following incubation, 70 μL/well of the ATPLite reagent (PerkinElmer) was added to the assay plates for one-step lysis and ATP level detection. The luminescent signals of the assay plates were measured on an EnSpire 2300 plate reader (PerkinElmer). Concentration response titration points for each compound were fitted to a 4-parameters logistic nonlinear regression model using KaleidaGraph, yielding the IC50value and standard error (SE).

G. lamblia GS = experiment: as above; format: cell-based; conditions: read-out: Cell viability values Mean IC50 (nM) G. lamblia GS
Description: as §1, §2, §3

E. histolytica HM1: IMSS = experiment: Trophozoite viability IC50 determination, Amebae assay (ATPLite); format: cell-based; conditions: Entamoeba histolytica, read-out: Cell viability values Mean IC50 (nM) E. histolytica HM1: IMSS
Description: as §1, §2, §3
Amebae assays: The protocol is identical to that described above except that the trophozoites were plated at a density of 5000 cells/well because of their larger size.

Recombinant human MetAP2 = molecular target: T1, Recombinant human MetAP2 (Homo sapiens, UniProt P50579); experiment: MetAP2 fluorescence assay; format: biochemical; conditions: recombinant human MetAP2, H-Met-Gly-Pro-AMC substrate
T1 construct: purchased Bio-Techne/R&D systems
T1 sequence (P50579 whole entry): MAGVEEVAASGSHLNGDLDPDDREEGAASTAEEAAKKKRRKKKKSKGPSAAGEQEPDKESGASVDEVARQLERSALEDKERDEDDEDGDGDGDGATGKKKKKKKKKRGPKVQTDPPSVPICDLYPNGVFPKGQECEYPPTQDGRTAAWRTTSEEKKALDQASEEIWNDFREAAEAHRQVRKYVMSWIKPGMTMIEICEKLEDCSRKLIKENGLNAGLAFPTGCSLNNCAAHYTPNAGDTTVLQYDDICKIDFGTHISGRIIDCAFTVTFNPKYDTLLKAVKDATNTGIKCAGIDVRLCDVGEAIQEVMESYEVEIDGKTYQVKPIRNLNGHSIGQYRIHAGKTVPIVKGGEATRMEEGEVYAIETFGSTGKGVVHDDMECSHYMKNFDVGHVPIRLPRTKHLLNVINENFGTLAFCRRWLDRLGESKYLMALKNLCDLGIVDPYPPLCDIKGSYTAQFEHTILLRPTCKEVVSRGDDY
Description: MetAP2 Fluorescence Assay
Recombinant human MetAP2 (Bio-Techne/R&D systems) was diluted to 10 μg/mL in the assay buffer (50 mM HEPES, 0.1 mM CoCl2, 100 mM NaCl, pH 7.5). The substrate, H-Met-Gly-Pro-AMC (Bio-Techne/R&D systems), was diluted to 500 μM with 2 μg/mL of the coupling enzyme, recombinant human dipeptidyl peptidase-4 (Bio-Techne/R&D systems), in assay buffer. 50 μL of 10 μg/mL recombinant human METAP2 were loaded into a flat-bottom black 96-well plate (Greiner Bio), and the reaction was initiated by adding 50 μL of the substrate/dipeptidyl peptidase-4 mixture. The reaction mixture was incubated at room temperature for 10 minutes, and the fluorescence was measured for 5 minutes at excitation and emission wavelengths of 380 nm and 460 nm, respectively, in kinetic mode. For IC50determination, 0.5 μL inhibitor solution was added to the reaction mixture. The reaction rates were used to calculate IC50with KaleidaGraph.

[1] = trophozoites, 72 hr, anaerobic, ATP level
[2] = Giardia duodenalis, trophozoites, 72 hr, anaerobic, ATP level

Compound | IC50 (G. lamblia WB; 72 h) | IC50 (G. lamblia GS; Giardia duodenalis, 72 h) | IC50 (E. histolytica HM1: IMSS; 72 h) | IC50 (Recombinant human MetAP2) | IC50 (G. lamblia WB; [1]) | IC50 (G. lamblia GS; [2]) | IC50 (E. histolytica HM1: IMSS; [1]) | IC50 (G. lamblia GS; [1])
CO[C@@H]1[C@H](OC(=O)N[C@H](C)B(O)O)CC[C@]2(CO2)[C@H]1[C@@]1(C)O[C@@H]1CC=C(C)C [No 70] | 101 to 1000 nM | 10.1 to 100 nM | > 1000 nM | < 10 nM | – | – | – | –
COC1C(OC(=O)NCCn2cc(B(O)O)cn2)CCC2(CO2)C1C1(C)OC1CC=C(C)C (centres unmarked) [No 61] | > 1000 nM | 101 to 1000 nM | > 1000 nM | – | – | – | – | –
CO[C@@H]1[C@H](OC(=O)N(C)c2ccc3c(c2)COB3O)CC[C@]2(CO2)[C@H]1[C@@]1(C)O[C@@H]1CC=C(C)C [No 5] | – | – | – | < 10 nM | – | – | – | –
CO[C@@H]1[C@H](OC(=O)Nc2cc(C(=O)O)ccc2B(O)O)CC[C@]2(CO2)[C@H]1[C@@]1(C)O[C@@H]1CC=C(C)C [No 22] | – | – | – | < 10 nM | 101 to 1000 nM | 101 to 1000 nM | 101 to 1000 nM | –
CO[C@@H]1[C@H](OC(=O)N2CCOc3c(B(O)O)cccc32)CC[C@]2(CO2)[C@H]1[C@@]1(C)O[C@@H]1CC=C(C)C [No 51] | 101 to 1000 nM | < 10 nM | 101 to 1000 nM | < 10 nM | – | – | – | –
CO[C@@H]1[C@H](OC(=O)Nc2csc(B(O)O)c2)CC[C@]2(CO2)[C@H]1[C@@]1(C)O[C@@H]1CC=C(C)C [No 40] | > 1000 nM | 101 to 1000 nM | > 1000 nM | < 10 nM | – | – | – | –
CO[C@@H]1[C@H](OC(=O)NCc2c(F)cc(B(O)O)cc2F)CC[C@]2(CO2)[C@H]1[C@@]1(C)O[C@@H]1CC=C(C)C [No 43] | > 1000 nM | 101 to 1000 nM | > 1000 nM | < 10 nM | – | – | – | –
CO[C@@H]1[C@H](OC(=O)Nc2c(F)cccc2B(O)O)CC[C@]2(CO2)[C@H]1[C@@]1(C)O[C@@H]1CC=C(C)C [No 35] | – | – | – | < 10 nM | > 1000 nM | 101 to 1000 nM | > 1000 nM | –
COC1C(OC(=O)NCc2cncc(B(O)O)c2)CCC2(CO2)C1C1(C)OC1CC=C(C)C (centres unmarked) [No 42] | > 1000 nM | 101 to 1000 nM | > 1000 nM | – | – | – | – | –
COC1C(OC(=O)N2CC(B(O)O)Cn3ccnc32)CCC2(CO2)C1C1(C)OC1CC=C(C)C (centres unmarked) [No 56] | > 1000 nM | 101 to 1000 nM | > 1000 nM | – | – | – | – | –
CO[C@@H]1[C@H](OC(=O)NCCc2ccccc2B(O)O)CC[C@]2(CO2)[C@H]1[C@@]1(C)O[C@@H]1CC=C(C)C [No 39] | > 1000 nM | 101 to 1000 nM | – | < 10 nM | – | – | – | –
COC1C(OC(=O)N2CCC(n3cc(B(O)O)cn3)CC2)CCC2(CO2)C1C1(C)OC1CC=C(C)C (centres unmarked) [No 46] | > 1000 nM | 101 to 1000 nM | > 1000 nM | – | – | – | – | –
CO[C@@H]1[C@H](OC(=O)Nc2cc(F)c3c(c2)B(O)OC3)CC[C@]2(CO2)[C@H]1[C@@]1(C)O[C@@H]1CC=C(C)C [No 8] | – | – | – | < 10 nM | – | – | – | < 10 nM
CO[C@@H]1[C@H](OC(=O)Nc2cc3c(cc2F)B(O)OC3(C)C)CC[C@]2(CO2)[C@H]1[C@@]1(C)O[C@@H]1CC=C(C)C [No 4] | – | – | – | < 10 nM | – | – | – | < 10 nM
COC(=O)c1cc(NC(=O)OC2CCC3(CO3)C(C3(C)OC3CC=C(C)C)C2OC)cc(B(O)O)c1 (centres unmarked) [No 27] | 101 to 1000 nM | 101 to 1000 nM | 101 to 1000 nM | – | – | – | – | –
CO[C@@H]1[C@H](OC(=O)Nc2ccc3c(c2)COB3O)CC[C@]2(CO2)[C@H]1[C@@]1(C)O[C@@H]1CC=C(C)C [No 1, (3R,4S,5S,6R)-5-methoxy-4-((2R,3R)-2-methyl-3-(3-methylbut-2-en-1-yl)oxiran-2-yl)-1-oxaspiro[2.5]octan-6-yl (1-hydroxy-1,3-dihydrobenzo[c][1,2]oxaborol-5-yl)carbamate] | – | – | – | – | < 10 nM | < 10 nM | < 10 nM | –
COC1C(OC(=O)NCc2cc(C#N)cc(B(O)O)c2)CCC2(CO2)C1C1(C)OC1CC=C(C)C (centres unmarked) [No 36] | > 1000 nM | 101 to 1000 nM | > 1000 nM | – | – | – | – | –
